Assay results taken from patent US8329707B2, “Substituted pyrazine compounds” (Astellas Pharma Inc., priority 2008, dated 2012).
Structures can show the parent of a compound that is named as a salt.

system: ICR mouse; experiment: Oral glucose tolerance test in normal mouse; format: in vivo; settings: ICR mouse fasted overnight; 10 mg/kg oral, glucose loading after 30 minutes; AUC lowering rate of blood glucose up to 2 hours after glucose loading vs solvent control
Method: The test compound was dissolved in a solvent (5% Cremophor, aqueous 5% DMSO solution), and to an ICR mouse after fasting overnight was orally administered 10 mg/kg of the test compound, and after 30 minutes, oral glucose loading was carried out. Immediately before the administration of the test compound, immediately before the glucose loading, and 0.25, 0.5, 1, and 2 hours after the glucose loading, blood was collected and blood glucose levels were measured. An AUC lowering rate (%) of the blood glucose levels from immediately before the glucose loading to 2 hours after the glucose loading with respect to that of the solvent control group was calculated.

| Structure (SMILES) | inhibition in vivo at 10 mg/kg [%] |
| --- | --- |
| COc1cnc(NC(=O)[C@H](C[C@H]2CCC(=O)C2)c2ccc(S(=O)(=O)C3CC3)c(C3CC3)c2)cn1 [Example 72] | 59 |
| O=C1CC[C@H](C[C@@H](C(=O)Nc2cnc(Cl)cn2)c2ccc(S(=O)(=O)C3CC3)c(C3CC3)c2)C1 [Example 70] | 60 |
| Cc1cnc(NC(=O)[C@H](C[C@H]2CCC(O)C2)c2ccc(S(=O)(=O)C3CC3)c(C3CC3)c2)cn1 (stereo partly drawn) [Example 78] | 50 |
| CC(C)(O)COc1cnc(NC(=O)[C@H](C[C@H]2CCC(=O)C2)c2ccc(S(=O)(=O)C3CC3)c(C3CC3)c2)cn1 [Example 10, (2R)-2-[3-cyclopropyl-4-(cyclopropylsulfonyl)phenyl]-N-[5-(2-hydroxy-2-methylpropoxy)pyrazin-2-yl]-3-[(1R)-3-oxocyclopentyl]propanamide] | 51 |

target: T1, recombinant human hepatic type GK (GST-hGK2) (Homo sapiens, UniProt P35557); experiment: Measurement of glucokinase (GK) activation; format: biochemical; settings: 10 min, read-out: GK activation (%)
T1 construct: made in house; host or cells: Escherichia coli BL21
T1 sequence (P35557 1-466 isoform P35557-2): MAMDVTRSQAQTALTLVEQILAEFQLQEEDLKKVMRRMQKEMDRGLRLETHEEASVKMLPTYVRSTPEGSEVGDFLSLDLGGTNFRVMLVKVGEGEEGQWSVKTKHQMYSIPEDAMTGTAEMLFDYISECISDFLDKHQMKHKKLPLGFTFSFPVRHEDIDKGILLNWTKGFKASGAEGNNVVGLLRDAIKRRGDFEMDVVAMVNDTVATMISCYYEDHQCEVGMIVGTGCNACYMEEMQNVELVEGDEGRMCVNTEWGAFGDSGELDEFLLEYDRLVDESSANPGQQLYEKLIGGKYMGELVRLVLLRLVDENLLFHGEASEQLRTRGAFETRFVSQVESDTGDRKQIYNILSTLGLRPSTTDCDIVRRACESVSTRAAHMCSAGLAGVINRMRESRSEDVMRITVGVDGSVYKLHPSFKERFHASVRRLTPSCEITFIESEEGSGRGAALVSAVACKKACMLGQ
Method: The present test was carried out in accordance with the method described in Science 301: 370-373, 2003 and with partial modification thereof. Hereinafter, the summary is described.
First, the cloning of GK (GenBank No. AK122876) was carried out. 5′-[…]-3′(SEQ ID NO: 1) and 5′-[…]-3′(SEQ ID NO: 2) were used as primers, and pME18S-FL3-Glucokinase isoform 2 was used as a template to carry out PCR. The obtained reaction product was TA-cloned into a pGEM-T easy vector, digested with EcoRI and XhoI, and introduced to the pGEX-5X-1 vector digested in the same manner by ligation. By using this plasmid DNA (pGEX-human Glucokinase 2), a recombinant human hepatic type GK (GST-hGK2) fused with GST (Glutathione S-transferase) was expressed in Escherichia coli (BL21 strain) and purified by Glutathione Sepharose.
The reaction of GK was carried out at 27° C. on a 96-well plate. First, 1 μL of the test compound (final concentration 10 μM) that has been diluted with dimethylsulfoxide (DMSO) was added to 89 μL of an enzyme mixed liquid (all final concentration 25 mM HEPES pH 7.4, 25 mM KCl, 2 mM MgCl2, 1 mM ATP, 0.1% BSA, 1 mM DTT, 1 mM NADP (nicotinamide adenine dinucleotide phosphate), 2.5 U/ml glucose-6-phosphate dehydrogenase, GST-hGK2 adjusted to ΔODCont of about 0.05 to 0.10). Subsequently, 10 μL of a substrate solution (final concentration 5 mM glucose) was added to start the reaction. In order to quantify a final product NADPH, an absorbance at a wavelength of 340 nm was measured, and the GK activation (%) of the test compound was calculated from the increase of absorbance during the first 10 minutes (ΔOD) after initiation of the reaction. GK activation (%)=[(ΔODTest)−(ΔODCont)]/(ΔODCont)×100
ΔODTest: ΔOD at test compound

| Structure (SMILES) | activation at 10 µM [%] |
| --- | --- |
| CC(=O)c1csc(NC(=O)/C(=C/[C@H]2CCC(=O)C2)c2ccc(S(=O)(=O)C3CC3)c(C3CC3)c2)n1 [Example 44] | 389 |
| O=C1CCC(/C=C(/C(=O)Nc2cnc(C(O)CO)cn2)c2ccc(S(=O)(=O)C3CC3)c(C3CC3)c2)C1 (stereo not drawn) [Example 38] | 386 |

same assay, conditions: 10 min; test compound final concentration 10 μM; 5 mM glucose; 27° C.; increase of absorbance at 340 nm during first 10 minutes vs DMSO; read-out: GK activation (%)

| activation at 10 µM [%] | Structure (SMILES) |
| --- | --- |
| 365 | Cn1ccc(NC(=O)/C(=C/C2CCOCC2)c2ccc(S(=O)(=O)C3CC3)c(C3CC3)c2)n1 [Example 2, (2E)-2-[3-cyclopropyl-4-(cyclopropylsulfonyl)phenyl]-N-(1-methyl-1H-pyrazol-3-yl)-3-(tetrahydro-2H-pyran-4-yl)acrylamide] |
| 337 | CC(=O)c1cnc(NC(=O)[C@H](C[C@H]2CCC(=O)C2)c2ccc(S(=O)(=O)C3CC3)c(C3CC3)c2)cn1 [Example 74] |
| 311 | COc1cnc(NC(=O)[C@H](C[C@H]2CCC(=O)C2)c2ccc(S(=O)(=O)C3CC3)c(C3CC3)c2)cn1 [Example 72] |
| 282 | O=C1CC[C@H](C[C@@H](C(=O)Nc2cnc(Cl)cn2)c2ccc(S(=O)(=O)C3CC3)c(C3CC3)c2)C1 [Example 70] |
| 377 | Cc1ccc(NC(=O)/C(=C/[C@H]2CCC(=O)C2)c2ccc(S(=O)(=O)C3CC3)c(C3CC3)c2)nc1 [Example 45] |
| 211 | Cc1ccc(NC(=O)[C@H](C[C@H]2CCC(O)C2)c2ccc(S(=O)(=O)C3CC3)c(C3CC3)c2)nc1 (stereo partly drawn) [Example 81] |
| 300 | Cc1cnc(NC(=O)/C(=C/C2CCOC2)c2ccc(S(=O)(=O)C3CC3)c(C3CC3)c2)cn1 (stereo not drawn) [Example 29] |
| 273 | Cc1cnc(NC(=O)[C@H](C[C@H]2CCC(O)C2)c2ccc(S(=O)(=O)C3CC3)c(C3CC3)c2)cn1 (stereo partly drawn) [Example 78] |
| 357 | CC(C)(O)COc1cnc(NC(=O)[C@H](C[C@H]2CCC(=O)C2)c2ccc(S(=O)(=O)C3CC3)c(C3CC3)c2)cn1 [Example 10, (2R)-2-[3-cyclopropyl-4-(cyclopropylsulfonyl)phenyl]-N-[5-(2-hydroxy-2-methylpropoxy)pyrazin-2-yl]-3-[(1R)-3-oxocyclopentyl]propanamide] |
| 328 | O=C(Nc1ccn(CC(O)CO)n1)/C(=C/C1CCCC1)c1ccc(S(=O)(=O)C2CC2)c(C2CC2)c1 (stereo in doubt) [Example 3, (2E)-3-cyclopentyl-2-[3-cyclopropyl-4-(cyclopropylsulfonyl)phenyl]-N-{1-[(2S)-2,3-dihydroxypropyl]-1H-pyrazol-3-yl}acrylamide] |
| 397 | O=C1CC[C@H](/C=C(/C(=O)Nc2nccs2)c2ccc(S(=O)(=O)C3CC3)c(C3CC3)c2)C1 [Example 40] |
| 286 | CC(=O)c1cnc(NC(=O)/C(=C/[C@H]2CCC(=O)C2)c2ccc(S(=O)(=O)C3CC3)c(C3CC3)c2)s1 [Example 39] |
| 211 | O=C(Nc1ncc(Cl)s1)/C(=C/C1CCOC1)c1ccc(S(=O)(=O)C2CC2)c(C2CC2)c1 (stereo not drawn) [Example 27] |
| 418 | O=C1CC[C@H](/C=C(/C(=O)Nc2nc3ccc(OCCO)nc3s2)c2ccc(S(=O)(=O)C3CC3)c(C3CC3)c2)C1 [Example 7, (2E)-2-[3-cyclopropyl-4-(cyclopropylsulfonyl)phenyl]-N-[5-(2-hydroxyethoxy)[1,3]thiazolo[5,4-b]pyridin-2-yl]-3-[(1S)-3-oxocyclopentyl]acrylamide] |
| 345 | Cn1ccc(NC(=O)/C(=C/C2CCCC2)c2ccc(S(=O)(=O)C3CC3)c(C3CC3)c2)n1 [Example 24] |
| 326 | O=C1CC[C@H](C[C@@H](C(=O)Nc2cnc(CCO)cn2)c2ccc(S(=O)(=O)C3CC3)c(C3CC3)c2)C1 [Example 99] |
| 257 | Cn1ccc(NC(=O)[C@H](C[C@H]2CCC(O)C2)c2ccc(S(=O)(=O)C3CC3)c(C3CC3)c2)n1 (stereo partly drawn) [Example 85] |
| 257 | Cc1cnc(NC(=O)/C(=C/[C@H]2CCC(=O)C2)c2ccc(S(=O)(=O)C3CC3)c(C3CC3)c2)s1 [Example 48] |

| activation at 10 µM [%] | Structure (SMILES) |
| --- | --- |
| 265 | O=C1CC[C@@H](/C=C(/C(=O)Nc2ncc(Cl)s2)c2ccc(S(=O)(=O)C3CC3)c(C3CC3)c2)C1 [Example 35] |
| 387 | Cc1cnc(NC(=O)/C(=C/C2CCC(=O)C2)c2ccc(S(=O)(=O)C3CC3)c(C3CC3)c2)cn1 (stereo not drawn) [Example 31] |
| 392 | O=C1CC[C@H](/C=C(/C(=O)Nc2nc(CF)cs2)c2ccc(S(=O)(=O)C3CC3)c(C3CC3)c2)C1 [Example 46] |
| 309 | O=C(Nc1ccn(C[C@H](O)CO)n1)/C(=C/C1CCCC1)c1ccc(S(=O)(=O)C2CC2)c(C2CC2)c1 [Example 30] |
| 314 | Cc1cnc(NC(=O)/C(=C/C2CCOCC2)c2ccc(S(=O)(=O)C3CC3)c(C3CC3)c2)cn1 [Example 28] |
| 231 | O=C(Nc1ncc(Cl)s1)/C(=C/C1CCOCC1)c1ccc(S(=O)(=O)C2CC2)c(C2CC2)c1 [Example 26] |
| 362 | O=C1CC[C@H](/C=C(/C(=O)Nc2ncc(Cl)s2)c2ccc(S(=O)(=O)C3CC3)c(C3CC3)c2)C1 [Example 41] |
| 307 | CC(C)(O)c1cnc(NC(=O)[C@H](C[C@H]2CCC(=O)C2)c2ccc(S(=O)(=O)C3CC3)c(C3CC3)c2)cn1 [Example 75] |
| 410 | Cn1ccc(NC(=O)/C(=C/C2CCC(=O)C2)c2ccc(S(=O)(=O)C3CC3)c(C3CC3)c2)n1 (stereo not drawn) [Example 32] |
| 391 | O=C1CC[C@H](/C=C(/C(=O)Nc2nc([C@H](O)CO)cs2)c2ccc(S(=O)(=O)C3CC3)c(C3CC3)c2)C1 [Example 43] |
| 336 | O=C1CCC(/C=C(/C(=O)Nc2cnc(CO)cn2)c2ccc(S(=O)(=O)C3CC3)c(C3CC3)c2)C1 (stereo not drawn) [Example 6, (2E)-2-[3-cyclopropyl-4-(cyclopropylsulfonyl)phenyl]-N-[5-(hydroxymethyl)pyrazin-2-yl]-3-(3-oxocyclopentyl)acrylamide] |
| 334 | Cn1ccc(NC(=O)/C(=C/C2CCOC2)c2ccc(S(=O)(=O)C3CC3)c(C3CC3)c2)n1 (stereo not drawn) [Example 25] |
| 245 | Cc1cnc(NC(=O)/C(=C/[C@@H]2CCC(=O)C2)c2ccc(S(=O)(=O)C3CC3)c(C3CC3)c2)cn1 [Example 34] |
| 260 | Cn1ccc(NC(=O)/C(=C/[C@@H]2CCC(=O)C2)c2ccc(S(=O)(=O)C3CC3)c(C3CC3)c2)n1 [Example 37] |
| 330 | O=C(Nc1ccn(CCCO)n1)/C(=C/C1CCCC1)c1ccc(S(=O)(=O)C2CC2)c(C2CC2)c1 [Example 1, (2E)-3-cyclopentyl-2-[3-cyclopropyl-4-(cyclopropylsulfonyl)phenyl]-N-[1-(3-hydroxypropyl)-1H-pyrazol-3-yl]acrylamide] |
| 375 | O=C1CCC(/C=C(/C(=O)Nc2ncc(Cl)s2)c2ccc(S(=O)(=O)C3CC3)c(C3CC3)c2)C1 (stereo not drawn) [Example 33] |
| 410 | O=C1CC[C@H](/C=C(/C(=O)Nc2ccc(C(=O)O)cn2)c2ccc(S(=O)(=O)C3CC3)c(C3CC3)c2)C1 [Example 5, 6-({(2E)-2-[3-cyclopropyl-4-(cyclopropylsulfonyl)phenyl]-3-[(1S)-3-oxocyclopentyl]prop-2-enoyl}amino)nicotinic acid monohydrochloride] |
| 297 | O=C1CC[C@H](/C=C(/C(=O)Nc2ncc(F)s2)c2ccc(S(=O)(=O)C3CC3)c(C3CC3)c2)C1 [Example 47] |
